# Experimental data from patent US20220265694A1, “COMPOSITIONS AND METHODS FOR TREATING AN INFECTION” (CMPD LICENSING, LLC, priority 2016, published 2022).
# Legend:
# Klebsiella oxytoca = assay: Expected efficacy of antibiotic agents; settings: expected efficacy against Klebsiella oxytoca; Gram: neg
# Shigella flexneri = assay: Expected efficacy of antibiotic agents; settings: expected efficacy against Shigella flexneri; Gram: neg
# Providencia rettgeri = assay: Expected efficacy of antibiotic agents; settings: expected efficacy against Providencia rettgeri; Gram: neg
# Enterococcus faecium = assay: Expected efficacy of antibiotic agents; settings: expected efficacy against Enterococcus faecium; Gram: pos
# [1] = test system: Staphylococcus epidermidis; assay: Expected efficacy of antibiotic agents; settings: expected efficacy against Staphylococcus epidermidis; Gram: pos
# Citrobacter diversus = assay: Expected efficacy of antibiotic agents; settings: expected efficacy against Citrobacter diversus; Gram: neg
# Klebsiella pneumoniae = assay: Expected efficacy of antibiotic agents; settings: expected efficacy against Klebsiella pneumoniae; Gram: neg
# Neisseria gonorrhoeae = assay: Expected efficacy of antibiotic agents; settings: expected efficacy against Neisseria gonorrhoeae; Gram: neg
# Shigella dysenteriae = assay: Expected efficacy of antibiotic agents; settings: expected efficacy against Shigella dysenteriae; Gram: neg
# [2] = test system: Haemophilus parainfluenzae; assay: Expected efficacy of antibiotic agents; settings: expected efficacy against Haemophilus parainfluenzae; Gram: neg
# Moraxella catarrhalis = assay: Expected efficacy of antibiotic agents; settings: expected efficacy against Moraxella catarrhalis; Gram: neg
# Bartonella bacilliformis = assay: Expected efficacy of antibiotic agents; settings: expected efficacy against Bartonella bacilliformis; Gram: neg
# Serratia marcescens = assay: Expected efficacy of antibiotic agents; settings: expected efficacy against Serratia marcescens; Gram: neg
# Campylobacter jejuni = assay: Expected efficacy of antibiotic agents; settings: expected efficacy against Campylobacter jejuni; Gram: neg
# Pseudomonas fluorescens = assay: Expected efficacy of antibiotic agents; settings: expected efficacy against Pseudomonas fluorescens; Gram: neg
# Citrobacter freundii = assay: Expected efficacy of antibiotic agents; settings: expected efficacy against Citrobacter freundii; Gram: neg
# Proteus mirabilis = assay: Expected efficacy of antibiotic agents; settings: expected efficacy against Proteus mirabilis; Gram: neg
# Morganella morganii = assay: Expected efficacy of antibiotic agents; settings: expected efficacy against Morganella morganii; Gram: neg
# Yersinia pestis = settings: expected efficacy against Yersinia pestis; Gram: neg
# Proteus vulgaris = assay: Expected efficacy of antibiotic agents; settings: expected efficacy against Proteus vulgaris; Gram: neg
# Chlamydia pneumoniae = assay: Expected efficacy of antibiotic agents; settings: expected efficacy against Chlamydia pneumoniae; Gram: n/a
# Rickettsiae = settings: expected efficacy against Rickettsiae; Gram: neg
# Haemophilus influenzae = assay: Expected efficacy of antibiotic agents; settings: expected efficacy against Haemophilus influenzae; Gram: neg
# Shigella sonnei = assay: Expected efficacy of antibiotic agents; settings: expected efficacy against Shigella sonnei; Gram: neg
# Salmonella typhi = assay: Expected efficacy of antibiotic agents; settings: expected efficacy against Salmonella typhi; Gram: neg
# Legionella pneumophila = settings: expected efficacy against Legionella pneumophila; Gram: neg
# Bacteroides fragilis = assay: Expected efficacy of antibiotic agents; settings: expected efficacy against Bacteroides fragilis; Gram: anaer
# Francisella tularensis = settings: expected efficacy against Francisella tularensis; Gram: neg
# Corynebacterium jeikeium = assay: Expected efficacy of antibiotic agents; settings: expected efficacy against Corynebacterium jeikeium; Gram: pos
# Enterobacter aerogenes = assay: Expected efficacy of antibiotic agents; settings: expected efficacy against Enterobacter aerogenes; Gram: neg
# Providencia stuartii = assay: Expected efficacy of antibiotic agents; settings: expected efficacy against Providencia stuartii; Gram: neg
# Pseudomonas aeruginosa = assay: Expected efficacy of antibiotic agents; settings: expected efficacy against Pseudomonas aeruginosa; Gram: neg
# Neisseria meningitidis = assay: Expected efficacy of antibiotic agents; settings: expected efficacy against Neisseria meningitidis; Gram: neg
# Vibrio cholerae = assay: Expected efficacy of antibiotic agents; settings: expected efficacy against Vibrio cholerae; Gram: neg
# Shigella boydii = assay: Expected efficacy of antibiotic agents; settings: expected efficacy against Shigella boydii; Gram: neg
# Escherichia coli = assay: Expected efficacy of antibiotic agents; settings: expected efficacy against Escherichia coli; Gram: neg
# [3] = test system: Methicillin resistant staph aureus (MRSA); assay: Expected efficacy of antibiotic agents; settings: expected efficacy against Methicillin resistant staph aureus (MRSA); Gram: pos
# Chlamydia psittaci = settings: expected efficacy against Chlamydia psittaci; Gram: n/a
# Clostridium perfringens = settings: expected efficacy against Clostridium perfringens; Gram: anaer
# Acinetobacter baumannii = assay: Expected efficacy of antibiotic agents; settings: expected efficacy against Acinetobacter baumannii; Gram: neg
# Enterobacter sakazakii = assay: Expected efficacy of antibiotic agents; settings: expected efficacy against Enterobacter sakazakii; Gram: neg
# Enterococcus faecalis = assay: Expected efficacy of antibiotic agents; settings: expected efficacy against Enterococcus faecalis; Gram: pos
# Streptococcus pneumoniae = assay: Expected efficacy of antibiotic agents; settings: expected efficacy against Streptococcus pneumoniae; Gram: pos
# Mycoplasma pneumoniae = assay: Expected efficacy of antibiotic agents; settings: expected efficacy against Mycoplasma pneumoniae; Gram: n/a
# Enterobacter cloacae = assay: Expected efficacy of antibiotic agents; settings: expected efficacy against Enterobacter cloacae; Gram: neg
# Clostridium difficile = assay: Expected efficacy of antibiotic agents; settings: expected efficacy against Clostridium difficile; Gram: anaer
# Acinetobacter lwoffii = assay: Expected efficacy of antibiotic agents; settings: expected efficacy against Acinetobacter lwoffii; Gram: neg
# [4] = test system: Klebsiella (Calymmatobacterium); assay: Expected efficacy of antibiotic agents; settings: expected efficacy against Klebsiella (Calymmatobacterium); Gram: neg
# Streptococcus agalactiae = assay: Expected efficacy of antibiotic agents; settings: expected efficacy against Streptococcus agalactiae; Gram: pos
# Brucella species = settings: expected efficacy against Brucella species; Gram: neg
# Streptococcus pyogenes = assay: Expected efficacy of antibiotic agents; settings: expected efficacy against Streptococcus pyogenes; Gram: pos
# Bordetella pertussis = assay: Expected efficacy of antibiotic agents; settings: expected efficacy against Bordetella pertussis; Gram: neg
# [5] = test system: Staphylococcus aureus (MSSA); assay: Expected efficacy of antibiotic agents; settings: expected efficacy against Staphylococcus aureus (MSSA); Gram: pos
# [6] = test system: Acinetobacter calcoaceticus; assay: Expected efficacy of antibiotic agents; settings: expected efficacy against Acinetobacter calcoaceticus; Gram: neg
# Chlamydia trachomatis = assay: Expected efficacy of antibiotic agents; settings: expected efficacy against Chlamydia trachomatis; Gram: n/a
# [7] = test system: Corynebacterium urealyticum; assay: Expected efficacy of antibiotic agents; settings: expected efficacy against Corynebacterium urealyticum; Gram: pos
# Haemophilus ducreyi = assay: Expected efficacy of antibiotic agents; settings: expected efficacy against Haemophilus ducreyi; Gram: neg
# Candida species = assay: Expected efficacy of antifungal agents; settings: expected efficacy against Candida species
smiles,measurement,setting,value
O=C(O)c1cn(C2CC2)c2cc(N3CCNCC3)c(F)cc2c1=O [Ciprofloxacin],Efficacy,Klebsiella oxytoca,yes
same,Efficacy,Shigella flexneri,yes
same,Efficacy,Providencia rettgeri,yes
same,Efficacy,Enterococcus faecium,no
same,Efficacy,[1],yes
same,Efficacy,Citrobacter diversus,yes
same,Efficacy,Klebsiella pneumoniae,yes
same,Efficacy,Neisseria gonorrhoeae,yes
same,Efficacy,Shigella dysenteriae,yes
same,Efficacy,[2],yes
same,Efficacy,Moraxella catarrhalis,yes
same,Efficacy,Bartonella bacilliformis,yes
same,Efficacy,Serratia marcescens,yes
same,Efficacy,Campylobacter jejuni,yes
same,Efficacy,Pseudomonas fluorescens,yes
same,Efficacy,Citrobacter freundii,yes
same,Efficacy,Proteus mirabilis,yes
same,Efficacy,Morganella morganii,yes
same,Efficacy,Yersinia pestis,yes
same,Efficacy,Proteus vulgaris,yes
same,Efficacy,Chlamydia pneumoniae,yes
same,Efficacy,Rickettsiae,yes
same,Efficacy,Haemophilus influenzae,yes
same,Efficacy,Shigella sonnei,yes
same,Efficacy,Salmonella typhi,yes
same,Efficacy,Legionella pneumophila,yes
same,Efficacy,Bacteroides fragilis,no
same,Efficacy,Francisella tularensis,yes
same,Efficacy,Corynebacterium jeikeium,no
same,Efficacy,Enterobacter aerogenes,yes
same,Efficacy,Providencia stuartii,yes
same,Efficacy,Pseudomonas aeruginosa,yes
same,Efficacy,Neisseria meningitidis,yes
same,Efficacy,Vibrio cholerae,yes
same,Efficacy,Shigella boydii,yes
same,Efficacy,Escherichia coli,yes
same,Efficacy,[3],no
CC[C@H]1OC(=O)[C@H](C)[C@@H](O[C@H]2C[C@@](C)(OC)[C@@H](O)[C@H](C)O2)[C@H](C)[C@@H](O[C@@H]2O[C@H](C)C[C@H](N(C)C)[C@H]2O)[C@](C)(O)C[C@@H](C)CN(C)[C@H](C)[C@@H](O)[C@]1(C)O [Azithromycin],Efficacy,Klebsiella oxytoca,no
same,Efficacy,Providencia rettgeri,no
same,Efficacy,Enterococcus faecium,no
same,Efficacy,[1],yes
same,Efficacy,Citrobacter diversus,no
same,Efficacy,Klebsiella pneumoniae,no
same,Efficacy,Chlamydia psittaci,yes
same,Efficacy,Moraxella catarrhalis,yes
same,Efficacy,Bartonella bacilliformis,yes
same,Efficacy,Clostridium perfringens,no
same,Efficacy,Serratia marcescens,no
same,Efficacy,Acinetobacter baumannii,no
same,Efficacy,Enterobacter sakazakii,no
same,Efficacy,Campylobacter jejuni,yes
same,Efficacy,Pseudomonas fluorescens,no
same,Efficacy,Enterococcus faecalis,no
same,Efficacy,Streptococcus pneumoniae,yes
same,Efficacy,Citrobacter freundii,no
same,Efficacy,Mycoplasma pneumoniae,yes
same,Efficacy,Proteus mirabilis,no
same,Efficacy,Morganella morganii,no
same,Efficacy,Enterobacter cloacae,no
same,Efficacy,Proteus vulgaris,no
same,Efficacy,Chlamydia pneumoniae,yes
same,Efficacy,Rickettsiae,yes
same,Efficacy,Clostridium difficile,no
same,Efficacy,Haemophilus influenzae,yes
same,Efficacy,Acinetobacter lwoffii,no
same,Efficacy,[4],no
same,Efficacy,Legionella pneumophila,yes
same,Efficacy,Streptococcus agalactiae,yes
same,Efficacy,Brucella species,no
same,Efficacy,Bacteroides fragilis,no
same,Efficacy,Francisella tularensis,no
same,Efficacy,Corynebacterium jeikeium,no
same,Efficacy,Streptococcus pyogenes,yes
same,Efficacy,Bordetella pertussis,yes
same,Efficacy,Enterobacter aerogenes,no
same,Efficacy,Providencia stuartii,no
same,Efficacy,[5],yes
same,Efficacy,Pseudomonas aeruginosa,no
same,Efficacy,Neisseria meningitidis,yes
same,Efficacy,[6],no
same,Efficacy,Vibrio cholerae,yes
same,Efficacy,Escherichia coli,no
same,Efficacy,Chlamydia trachomatis,yes
same,Efficacy,[3],no
C/C(=C\C(=O)OCCCCCCCCC(=O)O)C[C@@H]1OC[C@H](C[C@@H]2O[C@H]2[C@@H](C)[C@H](C)O)[C@@H](O)[C@H]1O [Bactroban],Efficacy,Klebsiella oxytoca,no
same,Efficacy,Shigella flexneri,no
same,Efficacy,Providencia rettgeri,no
same,Efficacy,Citrobacter diversus,no
same,Efficacy,Klebsiella pneumoniae,no
same,Efficacy,Neisseria gonorrhoeae,no
same,Efficacy,Shigella dysenteriae,no
same,Efficacy,[7],no
same,Efficacy,Moraxella catarrhalis,no
same,Efficacy,Bartonella bacilliformis,no
same,Efficacy,Clostridium perfringens,no
same,Efficacy,Serratia marcescens,no
same,Efficacy,Acinetobacter baumannii,no
same,Efficacy,Enterobacter sakazakii,no
same,Efficacy,Campylobacter jejuni,no
same,Efficacy,Pseudomonas fluorescens,no
same,Efficacy,Citrobacter freundii,no
same,Efficacy,Proteus mirabilis,no
same,Efficacy,Morganella morganii,no
same,Efficacy,Enterobacter cloacae,no
same,Efficacy,Haemophilus ducreyi,no
same,Efficacy,Yersinia pestis,no
same,Efficacy,Proteus vulgaris,no
same,Efficacy,Rickettsiae,no
same,Efficacy,Haemophilus influenzae,no
same,Efficacy,Shigella sonnei,no
same,Efficacy,Acinetobacter lwoffii,no
same,Efficacy,[4],no
same,Efficacy,Salmonella typhi,no
same,Efficacy,Legionella pneumophila,no
same,Efficacy,Brucella species,no
same,Efficacy,Francisella tularensis,no
same,Efficacy,Corynebacterium jeikeium,no
same,Efficacy,Streptococcus pyogenes,yes
same,Efficacy,Bordetella pertussis,no
same,Efficacy,Enterobacter aerogenes,no
same,Efficacy,Providencia stuartii,no
same,Efficacy,[5],yes
same,Efficacy,Pseudomonas aeruginosa,no
same,Efficacy,Neisseria meningitidis,no
same,Efficacy,[6],no
same,Efficacy,Vibrio cholerae,no
same,Efficacy,Shigella boydii,no
same,Efficacy,Escherichia coli,no
same,Efficacy,[3],yes
C[C@@H]1[C@H](O)[C@@H](C)/C=C/C=C/CC/C=C/C=C/C=C/C=C/C(O[C@H]2O[C@H](C)[C@@H](O)[C@H](N)[C@@H]2O)CC2O[C@](O)(CC(O)C(O)CCC(O)CC(O)CC(O)CC(=O)O[C@H]1C)CC(O)C2C(=O)O (stereo partly shown) [Nystatin],Efficacy,Candida species,yes
